Experimental data as given in patent US20170304228A1, “NEW INDICATION OF CINACALCET HCL PHARMACEUTICAL COMPOSITION FOR TREATING CANCER” (LAUNX BIOMEDICAL CO., LTD., priority 2014, published 2017).
Where a name gives a salt, the structure may show the parent alone. Read-outs that look alike come from different tables or passages of the source.

Key:
Type in all cases: cell-based
TSGH = test: Cell viability analysis (WST-1), TSGH; conditions: read-out: survival rate (viability) of cells
Experimental: (§1) The cell numbers were counted and reseed as 2×10^6 in culture plate/flask. Then, the culture medium were added to a volume of 10 ml, and the cells were cultured for 2-3 days. Then, the cells were suspended for loading into 96-well plates. The number of cells was 3000 and the volume of the culture medium was 100 μl each well.
(§2) Removing the original culture medium from 96-well plate. Then add 100 μl of commercially drug at a concentration of 10 μM per well. After 72 hours, add the diluted WST-1 reagent to the well with 100 μl/well, and the diluted WST-1 reagent was acquired from the dilution of 9:1 medium and WST-1 stock reagent. Finally, the total volume of each well was 200 μl/well. Culture the 96-well plate at 37° C. for 30 to 90 minutes. Detecting and calculate the survival rate of each cancer cells with an ELISA reader at OD450 nm. The lower viability of cancer cells represents better inhibition effect via the Cinacalcet HCl drug. Otherwise, the higher viability of cancer cells represents worse inhibition effect via the Cinacalcet HCl drug.
This inhibition test of Cinacalcet HCl on abdominal-related cancer cells were using bladder cancer cell line TSGH and T24 (Table 3), cervical cancer cell lines HeLa and C-33A (Table 4), renal cancer cell line 786-O (Table 5). The inhibitory tests of Cinacalcet HCl were performed 4 times for each cell lines and then the average value of the inhibitory tests was calculated.

MKN-45 = test: Cell viability analysis (WST-1), MKN-45; conditions: Homo sapiens, read-out: survival rate (viability) of cells
Experimental: as §1, §2
(§3) This inhibition test of Cinacalcet HCl on gastrointestinal tract-related cancer cells were using gastric cancer cell lines AGS and MKN-45 (Table 9), hepatic cancer cell lines HepG2 and Hep3B (Table 10), colorectal cancer cell lines HCT116-wt and LoVo (Table 11), pancreatic cancer cell line AsPC-1 and BxPC-3(Table 12), tongue cancer cell line SAS (Table 13). The inhibitory tests of Cinacalcet HCl were performed 4 times for each cell lines and then the average value of the inhibitory tests was calculated.

breast cancer cells = test: Summary of cell viability, breast cancer cells; conditions: 72 hours, read-out: Inhibitory effect
Experimental: as §1, §2
(§4) Cinacalcet HCl is having different inhibitory effect on different tumor cell type even in the same cancer. […] (FIG. 1)

ovarian cancer cells = test: Summary of cell viability, ovarian cancer cells; conditions: 72 hours, read-out: Inhibitory effect
Experimental: as §1, §2, §4

BxPC-3 = test: Cell viability analysis (WST-1), BxPC-3; conditions: Homo sapiens, read-out: survival rate (viability) of cells
Experimental: as §1, §2, §3

LNCap = test: Cell viability analysis (WST-1), LNCap; conditions: Homo sapiens, 72 hours, Average of tests, read-out: survival rate (viability) of cells
Experimental: as §1
as §2, with “Otherwise, the higher viability of cancer cells represents worse inhibition effect via the Cinacalcet HCl drug.” left out
(§5) This inhibition test of Cinacalcet HCl on endocrine-related cancer cells were using prostate cancer cell lines PC-3 and LNCap (Table 6), breast cancer cell lines MCF7 and MDA-MB-231 (Table 7), and ovarian cancer cell lines NIH-OVCAR-3 and TOV-21G (Table 8). The inhibitory tests of Cinacalcet HCl were performed 4 times for each cell lines and then the average value of the inhibitory tests was calculated.

A375 = test: Cell viability analysis (WST-1), A375; conditions: Homo sapiens, read-out: survival rate (viability) of cells
Experimental: as §1, §2
This inhibition test of Cinacalcet HCl on other cancer cells were using osteosarcoma cell line U2OS (Table 14), skin cancer cell lines A375 and BCC (Table 15). The inhibitory tests of Cinacalcet HCl were performed 4 times for each cell lines and then the average value of the inhibitory tests was calculated.

NIH-OVCAR-3 = test: Cell viability analysis (WST-1), NIH-OVCAR-3; conditions: Homo sapiens, read-out: survival rate (viability) of cells
Experimental: as §1, §2, §5

HepG2 = test: Cell viability analysis (WST-1), HepG2; conditions: Homo sapiens, read-out: survival rate (viability) of cells
Experimental: as §1, §2, §3

cervical cancer cells = test: Summary of cell viability, cervical cancer cells; conditions: 72 hours, read-out: Inhibitory effect
Experimental: as §1, §2, §4

MDA-MB-231 = test: Cell viability analysis (WST-1), MDA-MB-231; conditions: Homo sapiens, read-out: survival rate (viability) of cells
Experimental: as §1, §2, §5

[1] = Cell viability analysis (WST-1), normal kidney cell line HEK293; conditions: human, HEK293 cells (normal kidney cell line)
Experimental: as §1
as §2, with “Otherwise, the higher viability of cancer cells represents worse inhibition effect via the Cinacalcet HCl drug.” left out
This inhibition test of Cinacalcet HCl on normal cells were using normal kidney cell line HEK293 (Table 16), normal pulmonary epithelial cell lines […] BEAS-2B (Table 17). The inhibitory tests of Cinacalcet HCl were performed 4 times for each cell lines and then the average value of the inhibitory tests was calculated The results were shown in Tables 16 and Tables 17.

TOV-21G = test: Cell viability analysis (WST-1), TOV-21G; conditions: Homo sapiens, TOV21G, read-out: survival rate (viability) of cells
Experimental: as §1, §2, §5

C[C@@H](NCCCc1cccc(C(F)(F)F)c1)c1cccc2ccccc12 [Cinacalcet HCl, Cinacalcet hydrochloride]
viability at 10 µM (TSGH; 72 h, average of tests): 59.8%
viability at 10 µM (TSGH; 72 hours, test 0510-10 min): 57.3%
viability at 10 µM (TSGH; 72 hours, test 0512-10 min): 73.2%
viability at 10 µM (TSGH; 72 hours, test 0515-10 min): 74.7%
viability at 10 µM (TSGH; 72 hours, test 0517-10 min): 33.9%
viability at 10 µM (MKN-45; MKN-45, 10 μM, 72 hours, test 0510-10 min): 82.1%
viability at 10 µM (MKN-45; MKN-45, 10 μM, 72 hours, test 0512-10 min): 102%
viability at 10 µM (MKN-45; MKN-45, 10 μM, 72 hours, test 0515-10 min): 104%
viability at 10 µM (MKN-45; MKN-45, 10 μM, 72 hours, test 0517-10 min): 69.1%
viability at 10 µM (MKN-45; MKN-45, 72 h, 10 μM, average of tests): 89.1%
viability at 10 µM (breast cancer cells): 108%
viability at 10 µM (ovarian cancer cells): 58.7%
viability at 10 µM (BxPC-3; BXPC-3, 10 μM, 72 hours, test 3-4-30 min): 76.2%
viability at 10 µM (BxPC-3; BXPC-3, 10 μM, 72 hours, test 3-7-3-30 min): 64.6%
viability at 10 µM (BxPC-3; BXPC-3, 10 μM, 72 hours, test 3-7-4-30 min): 78.8%
viability at 10 µM (BxPC-3; BXPC-3, 10 μM, 72 hours, test 3-7-7-30 min): 100%
viability at 10 µM (BxPC-3; BXPC-3, 72 h, 10 μM, Average of tests): 79.9%
viability at 10 µM (LNCap): 52.6%
viability at 10 µM (A375; A-375, 10 μM, 72 hours, test 0602-30 min): 117%
viability at 10 µM (A375; A-375, 10 μM, 72 hours, test 0605-10 min): 95.6%
viability at 10 µM (A375; A-375, 10 μM, 72 hours, test 0607-10 min): 94.4%
viability at 10 µM (A375; A-375, 10 μM, 72 hours, test 0609-10 min): 108%
viability at 10 µM (A375; A-375, 72 h, 10 μM, average of tests): 104%
viability at 10 µM (NIH-OVCAR-3; OVCAR-3, 10 μM, 72 hours, test 7-3-30 min): 90.7%
viability at 10 µM (NIH-OVCAR-3; OVCAR-3, 10 μM, 72 hours, test 7-4-30 min): 111%
viability at 10 µM (NIH-OVCAR-3; OVCAR-3, 10 μM, 72 hours, test 7-7-30 min): 100%
viability at 10 µM (NIH-OVCAR-3; OVCAR-3, 10 μM, 72 hours, test -4-30 min): 111%
viability at 10 µM (NIH-OVCAR-3; OVCAR-3, 72 h, 10 μM, average of tests): 103%
viability at 10 µM (HepG2; HepG2, 10 μM, 72 hours, test 0524-20 min): 106%
viability at 10 µM (HepG2; HepG2, 10 μM, 72 hours, test 0526-20 min): 133%
viability at 10 µM (HepG2; HepG2, 10 μM, 72 hours, test 0529-20 min): 116%
viability at 10 µM (HepG2; HepG2, 10 μM, 72 hours, test 0531-20 min): 89.5%
viability at 10 µM (HepG2; HepG2, 72 h, 10 μM, average of tests): 111%
viability at 10 µM (cervical cancer cells): 111%
viability at 10 µM (MDA-MB-231; MDA-MB-231, 10 μM, 72 hours, test 0612-10 min): 92.3%
viability at 10 µM (MDA-MB-231; MDA-MB-231, 10 μM, 72 hours, test 0614-10 min): 84.9%
viability at 10 µM (MDA-MB-231; MDA-MB-231, 10 μM, 72 hours, test 0616-10 min): 60.8%
viability at 10 µM (MDA-MB-231; MDA-MB-231, 10 μM, 72 hours, test 0619-10 min): 92.8%
viability at 10 µM (MDA-MB-231; MDA-MB-231, 72 h, 10 μM, average of tests): 82.7%
viability at 72 h, 10 µM ([1]; average of tests, read-out: survival rate (viability) of cells): 114%
viability at 72 h, 10 µM ([1]; summary, kidney cell lines, read-out: Inhibitory effect): 114%
viability at 10 µM (TOV-21G; 72 h, average of tests): 113%
viability at 10 µM (TOV-21G; 72 hours, test 7-3-30 min): 129%
viability at 10 µM (TOV-21G; 72 hours, test 7-4-30 min): 109%
viability at 10 µM (TOV-21G; 72 hours, test 7-7-30 min): 104%
viability at 10 µM (TOV-21G; 72 hours, test -4-30 min): 108%
